The values below come from patent US10138255B2, “Piperazine derivatives as HIV protease inhibitors” (Merck Sharp & Dohme Corp., priority 2014, dated 2018).

pEC50: −log10 of the molar value.

In this assay the test system is HIV-1 (H9IIIB strain). The assay can be described thus: Cell-Based HIV Infection Assay Using a Reporter (MT4-GFP cells). Particulars: Human immunodeficiency virus 1, inflection point (IP) of viral growth inhibition; MT4-GFP cells infected with HIV-1 H9IIIB; 50% normal human serum; mean of at least two independent experiments; read-out: Cell Based IP (50% NHS). As to the method: Cell-Based HIV Infection Assay Using a Reporter (“Cell-Based”):
MT4-GFP cells contain a stably integrated HIV long terminal repeat promoter directing the transcription of green fluorescent protein (GFP). When HIV infects the cell, GFP is produced and the cell becomes green. MT4-GFP cells (250,000 cells/mL) were bulk-infected with HIV-1 (H9IIIB strain) at low multiplicity of infection (MOI) in RPM 1640 media, supplemented with 10% FBS for 24 h. Cells were then washed once in RPMI 1640 plus 10% FBS and resuspended in RPMI plus 50% normal human serum (NHS). Test compounds were serial-diluted in DMSO using an ECHO liquid dispenser. A control well included a combination of three HIV drugs (an inhibitor of HIV protease, integrase strand transfer and a non-nucleoside reverse transcriptase inhibitor; triple drug). The infected MT4-GFP cells were added to a 384-well poly-D-lysine coated black plate with clear bottom in which the diluted test compounds were placed. The cells were seeded in the plate at 8,000 cells per well and the final DMSO concentration was 0.4%. Infected cells were quantified at both 24 and 48 h post incubation using an Acumen eX3 plate reader. Viral reproductive ratio (R0) was determined using the number of infected cells at 48 h divided by the number of infected cells at 24 h. Percent viral growth inhibition was calculated by [1−(R−Rtripledrug)/(RDMSO−Rtripledrug)]*100. Compound potency inflection point (IP) was determined with use of a 4-parameter dose response curve analysis.
Data shown in the table reflects the mean of at least two independent experiments.
As for `COC(=O)N[C@H](C(=O)N[C@H]1CCCC[C@@H]1CC[C@H]1CN[C@@H]2CCCS(=O)(=O)N1C2)[C@@]1(c2ccc(Cl)cc2)C[C@@H](C)O[C@@H](C)C1` [Example 169, methyl [(1S)-1-[(2R,4r,6S)-4-(4-chlorophenyl)-2.6-dimethyltetrahydro-2H-pyran-4-yl]-2-{[(1S,2R)-2-{2-[(6R,9S)-2,2-dioxido-2-thia-1,7-diazabicyclo[4.3.1]dec-9-yl]ethyl}cyclohexyl]amino}-2-oxoethyl]carbamate], the pEC50 was 7.05.
Turning to `NC(C(=O)Nc1cccc(F)c1CC[C@H]1CN[C@@H]2CCCS(=O)(=O)N1C2)[C@@H](c1ccc(Cl)cc1)[C@H]1CC[C@H](O)CC1` (stereo partly drawn) [Example 217, (βR)-4-chloro-N-(2-{2-[(6R,9S)-2,2-dioxido-2-thia-1,7-diazabicyclo[4.3.1]dec-9-yl]ethyl}-3-fluorophenyl)-β-[(1r,4R)-4-hydroxycyclohexyl]-L-phenylalaninamide], the pEC50 was 7.89.
The result for `C[C@@H]1CC([C@H](c2ccc(Cl)c(F)c2)[C@H](N)C(=O)Nc2cccc(F)c2CC[C@H]2CN[C@@H]3CCCS(=O)(=O)N2C3)C[C@H](C)O1` (stereo partly drawn) [Example 165, (βR)-4-chloro-β-[(2R,6S)-2,6-dimethyltetrahydro-2H-pyran-4-yl]-N-(2-{2-[(6R,9S)-2,2-dioxido-2-thia-1,7-diazabicyclo[4.3.1]dec-9-yl]ethyl}-3-fluorophenyl)-3-fluoro-L-phenylalaninamide] reads 8.12; that for `COC(=O)N[C@H](C(=O)Nc1c(F)ccc(F)c1CC[C@H]1CN[C@@H]2CCCS(=O)(=O)N1C2)[C@@H](c1ccc(Cl)cc1)[C@H]1CCOC(C)(C)C1` [Example 200, methyl {(1S,2R)-2-(4-chlorophenyl)-2-[(4S)-2,2-dimethyltetrahydro-2H-pyran-4-yl]-1-[(2-{2-[(6R,9S)-2,2-dioxido-2-thia-1,7-diazabicyclo[4.3.1]dec-9-yl]ethyl}-3,6-difluorophenyl)carbamoyl]ethyl}carbamate], 7.46.
The value for `CC(F)(F)c1ccc([C@H](c2ccc(Cl)cc2)[C@H](N)C(=O)Nc2cncc(F)c2CC[C@H]2CN[C@@H]3CCCS(=O)(=O)N2C3)cn1` [Example 246, (2S,3R)-2-amino-3-(4-chlorophenyl)-3-(6-(1,1-difluoroethyl)pyridin-3-yl)-9-(4-(2-((6R,9S)-2,2-dioxido-2-thia-1,7-diazabicyclo[4.3.1]decan-9-yl)ethyl)-5-fluoropyridin-3-yl)propanamide] was 7.72.
`N[C@H](C(=O)Nc1cccc(F)c1CC[C@H]1CNC2CCCS(=O)(=O)N1C2)C1(c2ccc(Cl)cc2)CCOCC1` (stereo partly drawn) [Example 40, (2S)-2-amino-2-[4-(4-chlorophenyl)tetrahydro-2H-pyran-4-yl]-N-(2-{2-[(9S)-2,2-dioxido-2-thia-1,7-diazabicyclo[4.3.1]dec-9-yl]ethyl}-3-fluorophenyl)ethanamide]: the pEC50 was 7.00.
The value for `CCO[C@H]1CC[C@H]([C@H](c2ccc(F)cc2)[C@H](N)C(=O)Nc2cccc(F)c2CC[C@H]2CN[C@@H]3CCCS(=O)(=O)N2C3)CC1` [Example 212, (βR)-N-(2-{2-[(6R,9S)-2,2-dioxido-2-thia-1,7-diazabicyclo[4.3.1]dec-9-yl]ethyl}-3-fluorophenyl)-β-[(1r,4R)-4-ethoxycyclohexyl]-4-fluoro-L-phenylalaninamide] was 8.15; that for `COC[C@H]1CC[C@H]([C@H](c2ccc(Cl)cc2)[C@H](N)C(=O)Nc2cncc(F)c2CC[C@H]2CN[C@@H]3CCCS(=O)(=O)N2C3)CC1` [Example 254, (βR)-4-chloro-N-(4-{2-[(6R,9S)-2,2-dioxido-2-thia-1,7-diazabicyclo[4.3.1]dec-9-yl]ethyl}-5-fluoropyridin-3-yl)-β-[(1r,4R)-4-(methoxymethyl)cyclohexyl]-L-phenylalaninamide] was 8.52; that for `C[C@@H]1CC([C@H](c2ccc(F)cc2)[C@H](N)C(=O)Nc2ccc(F)c(F)c2CC[C@H]2CN[C@@H]3CCCS(=O)(=O)N2C3)C[C@H](C)O1` (stereo partly drawn) [Example 166, (βR)-β-[(2R,6S)-2,6-dimethyltetrahydro-2H-pyran-4-yl]-N-(2-{2-[(6R,9S)-2,2-dioxido-2-thia-1,7-diazabicyclo[4.3.1]dec-9-yl]ethyl}-3,4-difluorophenyl)-4-fluoro-L-phenylalaninamide] was 7.60.
The result for `COC(=O)N[C@H](C(=O)Nc1cccc(F)c1CC[C@H]1CNC2CCCS(=O)(=O)N1C2)C1(c2ccc(F)cc2)CCC(F)(F)CC1` (stereo partly drawn) [Example 41, methyl {(1S)-1-[4,4-difluoro-1-(4-fluorophenyl)cyclohexyl]-2-[(2-{2-[(9S)-2,2-dioxido-2-thia-1,7-diazabicyclo[4.3.1]dec-9-yl]ethyl}-3-fluorophenyl)amino]-2-oxoethyl}carbamate] reads 7.37.
The result for `N[C@H](C(=O)Nc1cccc(F)c1CCC1CNC2CCCS(=O)(=O)N1C2)[C@@H](c1ccc(Cl)cc1)C1CCOCC1` (stereo partly drawn) [Example 36, (βR)-4-chloro-N-{2-[2-(2,2-dioxido-2-thia-1,7-diazabicycio[4.3.1]dec-9-yl)ethyl]-3-fluorophenyl}-β-(tetrahydro-2H-pyran-4-yl)-L-phenylalaninamide] reads 7.66; that for `COC(=O)N[C@H](C(=O)Nc1cncc(F)c1CC[C@H]1CN[C@@H]2CCCS(=O)(=O)N1C2)[C@@H](c1ccc(F)cc1)C1CCOCC1` [Example 178, methyl {(1S)-2-[(4-{2-[(6R,9S)-2,2-dioxido-2-thia-1,7-diazabicyclo[4.3.1]dec-9-yl]ethyl}-5-fluoropyridin-3-yl)amino]-1-[(R)-(4-fluorophenyl)(tetrahydro-2H-pyran-4-yl)methyl]-2-oxoethyl}carbamate], 6.80; that for `CC1(C)C[C@@H]([C@H](c2ccc(Cl)cc2)[C@H](N)C(=O)N[C@H]2CCCC[C@@H]2CC[C@H]2CN[C@@H]3CCCS(=O)(=O)N2C3)CCO1` [Example 129, (βR)-4-chloro-β-[(4S)-2,2-dimethyltetrahydro-2H-pyran-4-yl]-N-[(1S,2R)-2-{2-[(6R,9S)-2,2-dioxido-2-thia-1,7-diazabicyclo[4.3.1]dec-9-yl]ethyl}cyclohexyl]-L-phenylalaninamide], 7.25.
As for `N[C@H](C(=O)Nc1cccc(F)c1CCC1CNC2CCCS(=O)(=O)N1C2)[C@@H](c1ccc(F)cc1)c1cccc(C(F)(F)F)c1` (stereo partly drawn) [Example 2, (βS)—N-{2-[2-(2,2-Dioxido-2-thia-1,7-diazabicyclo[4.3.1]dec-9-yl)ethyl]-3-fluorophenyl}-β-(4-fluorophenyl)-3-(trifluoromethyl)-L-phenylalaninamide], the pEC50 is 8.17.
For `COC(=O)N[C@H](C(=O)N[C@H]1CCCC[C@@H]1CC[C@H]1CN[C@@H]2CCCS(=O)(=O)N1C2)[C@@H](c1ccc(Cl)cc1)c1cc(F)cc(F)c1` [Example 100, methyl [(1S,2S)-2-(4-chlorophenyl)-2-(3,5-difluorophenyl)-1-{[(1S,2R)-2-{2-[(6R,9S)-2,2-dioxido-2-thia-1,7-diazabicyclo[4.3.1]dec-9-yl]ethyl}cyclohexyl]carbamoyl}ethyl]carbamate], the pEC50 was 7.62.
The value for `CCC(CC)[C@H](c1ccc(Cl)cc1)[C@H](N)C(=O)Nc1cccc(F)c1CCC1CNC2CCCS(=O)(=O)N1C2` (stereo partly drawn) [Example 70, (βR)-4-chloro-N-{2-[2-(2,2-dioxido-2-thia-1,7-diazabicyclo[4.3.1]dec-9-yl)ethyl]-3-fluorophenyl}-β-(1-ethylpropyl)-L-phenylalaninamide] was 7.31.
The value for `COc1ccc([C@H](c2ccc(Cl)cc2)[C@H](N)C(=O)Nc2cccc(F)c2CCC2CNC3CCCS(=O)(=O)N2C3)cn1` (stereo partly drawn) [Example 45, (βS)-4-chloro-N-{2-[2-(2,2-dioxido-2-thia-1,7-diazabicyclo[4.3.1]dec-9-yl)ethyl]-3-fluorophenyl}-β-(6-methoxypyridin-3-yl)-L-phenylalaninamide] was 8.42.
The value for `COC(=O)N[C@H](C(=O)Nc1cccc(F)c1CC[C@H]1CN[C@@H]2CCCS(=O)(=O)N1C2)[C@@H](c1ccc(F)cc1)C1C[C@@H](C)O[C@H](C)C1` (stereo partly drawn) [Example 112, methyl [(1S,2R)-2-[(2R,6R)-2,6-dimethyltetrahydro-2H-pyran-4-yl]-1-[(2-{2-[(6R,9S)-2,2-dioxido-2-thia-1,7-diazabicyclo[4.3.1]dec-9-yl]ethyl}-3-fluorophenyl)carbamoyl]-2-(4-fluorophenyl)ethyl]carbamate] was 7.38; that for `C[C@@H]1C[C@H]([C@H](c2ccc(F)cc2)[C@H](N)C(=O)Nc2c(F)ccc(F)c2CC[C@H]2CN[C@@H]3CCCS(=O)(=O)N2C3)C[C@H](C)O1` [Example 146, (βR)-β-[(2R,4r,6S)-2,6-dimethyltetrahydro-2H-pyran-4-yl]-N-(2-{2-[(6R,9S)-2,2-dioxido-2-thia-1,7-diazabicyclo[4.3.1]dec-9-yl]ethyl}-3,6-difluorophenyl)-4-fluoro-L-phenylalaninamide] was 7.60.
